Test results: PubChem BioAssay (NCI)
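GI50 marks 50% less growth. TGI marks complete inhibition of growth.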

Assays:
Test in all cases: NCI anticancer screen, dose series, 384-well format; in the data active = GI50 below about 0.43 µM; inactive = the rest
786-0 renal = system: 786-0 renal
A498 renal = system: A498 renal
A549 NSCLC = system: A549 NSCLC
ACHN renal = system: ACHN renal
BT-549 breast = system: BT-549 breast
CAKI-1 renal = system: CAKI-1 renal
CCRF-CEM leukemia = system: CCRF-CEM leukemia
COLO 205 colon = system: COLO 205 colon
DU-145 prostate = system: DU-145 prostate
EKVX NSCLC = system: EKVX NSCLC
HCC-2998 colon = system: HCC-2998 colon
HCT-15 colon = system: HCT-15 colon
HL-60(TB) leukemia = system: HL-60(TB) leukemia
HOP-62 NSCLC = system: HOP-62 NSCLC
HOP-92 NSCLC = system: HOP-92 NSCLC
HS 578T breast = system: HS 578T breast
HT29 colon = system: HT29 colon
IGROV1 ovarian = system: IGROV1 ovarian
K-562 leukemia = system: K-562 leukemia
KM12 colon = system: KM12 colon
LOX IMVI melanoma = system: LOX IMVI melanoma
M14 melanoma = system: M14 melanoma
MALME-3M melanoma = system: MALME-3M melanoma
MCF7 breast = system: MCF7 breast
MDA-MB-231 breast = system: MDA-MB-231 breast
MDA-MB-435 melanoma = system: MDA-MB-435 melanoma
MDA-MB-468 breast = system: MDA-MB-468 breast
MOLT-4 leukemia = system: MOLT-4 leukemia
NCI-H226 lung = system: NCI-H226 lung
NCI-H23 lung = system: NCI-H23 lung
NCI-H322M lung = system: NCI-H322M lung
NCI-H460 NSCLC = system: NCI-H460 NSCLC
NCI-H522 lung = system: NCI-H522 lung
NCI/ADR-RES ovarian = system: NCI/ADR-RES ovarian
OVCAR-3 ovarian = system: OVCAR-3 ovarian
OVCAR-4 ovarian = system: OVCAR-4 ovarian
OVCAR-5 ovarian = system: OVCAR-5 ovarian
OVCAR-8 ovarian = system: OVCAR-8 ovarian
PC-3 prostate = system: PC-3 prostate
RPMI-8226 leukemia = system: RPMI-8226 leukemia
RXF 393 renal = system: RXF 393 renal
SF-268 CNS = system: SF-268 CNS
SF-295 CNS = system: SF-295 CNS
SF-539 CNS = system: SF-539 CNS
SK-MEL-28 melanoma = system: SK-MEL-28 melanoma
SK-MEL-5 melanoma = system: SK-MEL-5 melanoma
SK-OV-3 ovarian = system: SK-OV-3 ovarian
SN12C renal = system: SN12C renal
SNB-19 CNS = system: SNB-19 CNS
SNB-75 CNS = system: SNB-75 CNS
SR leukemia = system: SR leukemia
SW-620 colon = system: SW-620 colon
T-47D breast = system: T-47D breast
TK-10 renal = system: TK-10 renal
UACC-257 melanoma = system: UACC-257 melanoma
UACC-62 melanoma = system: UACC-62 melanoma
UO-31 renal = system: UO-31 renal

CCCCCCCCCCCCCCCCCCOP(=O)([O-])OC1CC[N+](C)(C)CC1
85.7 µM: TGI (SF-268 CNS)
11 µM: TGI (HCT-15 colon)
23.1 µM: TGI (NCI-H522 lung)
18.1 µM: TGI (RXF 393 renal)
28 µM: TGI (A549 NSCLC)
24.3 µM: TGI (BT-549 breast)
1.4 µM: TGI (PC-3 prostate)
4.79 µM: TGI (CCRF-CEM leukemia)
31.3 µM: TGI (786-0 renal)
2.85 µM: TGI (HL-60(TB) leukemia)
26 µM: TGI (HCC-2998 colon)
3 µM: TGI (TK-10 renal)
30.6 µM: TGI (ACHN renal)
52.7 µM: TGI (MDA-MB-231 breast)
active: GI50 (PC-3 prostate) 0.362 µM | GI50 (RPMI-8226 leukemia) 0.32 µM | GI50 (SR leukemia) 0.406 µM
3.99 µM: TGI (IGROV1 ovarian)
12.9 µM: TGI (HT29 colon)
61.9 µM: TGI (SF-295 CNS)
10.1 µM: TGI (KM12 colon)
28.4 µM: TGI (HOP-62 NSCLC)
> 100 µM: TGI (DU-145 prostate) | TGI (EKVX NSCLC) | TGI (HS 578T breast) | TGI (K-562 leukemia) | TGI (MALME-3M melanoma) | TGI (MCF7 breast) | TGI (MDA-MB-435 melanoma) | TGI (NCI-H226 lung) | TGI (NCI-H23 lung) | TGI (NCI-H322M lung) | TGI (NCI/ADR-RES ovarian) | TGI (OVCAR-3 ovarian) | TGI (OVCAR-8 ovarian) | TGI (SF-539 CNS) | TGI (SK-MEL-28 melanoma) | TGI (SK-MEL-5 melanoma) | TGI (SK-OV-3 ovarian) | TGI (SNB-75 CNS) | TGI (SW-620 colon) | TGI (T-47D breast) | TGI (UACC-257 melanoma) | TGI (UACC-62 melanoma) | TGI (UO-31 renal)
24.6 µM: TGI (HOP-92 NSCLC)
76.6 µM: TGI (OVCAR-4 ovarian)
92.2 µM: TGI (A498 renal)
inactive: GI50 ([…]-0 renal) 7.36 µM | GI50 (A498 renal) 17.2 µM | GI50 (A549 NSCLC) 14.4 µM | GI50 (ACHN renal) 15.9 µM | GI50 (BT-549 breast) 11.5 µM | GI50 (CAKI-1 renal) 10.8 µM | GI50 (CCRF-CEM leukemia) 1.8 µM | GI50 (COLO 205 colon) 1.29 µM | GI50 (DU-145 prostate) 36.4 µM | GI50 (EKVX NSCLC) 32.5 µM | GI50 (HCC-2998 colon) 4.59 µM | GI50 (HCT-15 colon) 3.21 µM | GI50 (HL-60(TB) leukemia) 1.45 µM | GI50 (HOP-62 NSCLC) 11.4 µM | GI50 (HOP-92 NSCLC) 11.6 µM | GI50 (HS 578T breast) 32.8 µM | GI50 (HT29 colon) 2.9 µM | GI50 (IGROV1 ovarian) 1.67 µM | GI50 (K-562 leukemia) 61.5 µM | GI50 (KM12 colon) 0.757 µM | GI50 (LOX IMVI melanoma) 16.9 µM | GI50 (M14 melanoma) 21.1 µM | GI50 (MALME-3M melanoma) > 100 µM | GI50 (MCF7 breast) 57.5 µM | GI50 (MDA-MB-231 breast) 15.9 µM | GI50 (MDA-MB-435 melanoma) > 100 µM | GI50 (MDA-MB-468 breast) 23.2 µM | GI50 (MOLT-4 leukemia) 7.26 µM | GI50 (NCI-H226 lung) 50 µM | GI50 (NCI-H23 lung) > 100 µM | GI50 (NCI-H322M lung) 60.9 µM | GI50 (NCI-H460 NSCLC) 1.47 µM | GI50 (NCI-H522 lung) 8.69 µM | GI50 (NCI/ADR-RES ovarian) > 100 µM | GI50 (OVCAR-3 ovarian) 64 µM | GI50 (OVCAR-4 ovarian) 25.7 µM | GI50 (OVCAR-5 ovarian) 6.35 µM | GI50 (OVCAR-8 ovarian) 39.9 µM | GI50 (RXF 393 renal) 2.87 µM | GI50 (SF-268 CNS) 22.2 µM | GI50 (SF-295 CNS) 11.7 µM | GI50 (SF-539 CNS) > 100 µM | GI50 (SK-MEL-28 melanoma) > 100 µM | GI50 (SK-MEL-5 melanoma) > 100 µM | GI50 (SK-OV-3 ovarian) > 100 µM | GI50 (SN12C renal) 25.5 µM | GI50 (SNB-19 CNS) 21.3 µM | GI50 (SNB-75 CNS) 68.8 µM | GI50 (SW-620 colon) 10 µM | GI50 (T-47D breast) 29.6 µM | GI50 (TK-10 renal) 1.48 µM | GI50 (UACC-257 melanoma) > 100 µM | GI50 (UACC-62 melanoma) 23.2 µM | GI50 (UO-31 renal) 45.9 µM
36.4 µM: TGI (OVCAR-5 ovarian)
14.7 µM: TGI (NCI-H460 NSCLC)
24.5 µM: TGI (CAKI-1 renal)
19.9 µM: TGI (MOLT-4 leukemia)
77 µM: TGI (SNB-19 CNS)
98 µM: TGI (SN12C renal)
0.819 µM: TGI (RPMI-8226 leukemia)
2 µM: TGI (SR leukemia)
62.8 µM: TGI (M14 melanoma)
54 µM: TGI (LOX IMVI melanoma)
49 µM: TGI (MDA-MB-468 breast)
16 µM: TGI (COLO 205 colon)
